Assay results from patent US11566007B2, “Ras inhibitors” (Revolution Medicines, Inc., priority 2019, dated 2023).
“And” between values parts separate entries of the source, which are not always exact repeats. Equal entries are not always repeated. Where two headings read alike, the source gives them in different places.

Tests used:
NCI-H358 (K-Ras G12C) = assay: CellTiter-Glo cell viability assay, NCI-H358; type: cell-based, human; details: NCI-H358, 5-day treatment, class symbols, read-out: Additional H358 Cell Viability assay data (K-Ras G12C, IC50)
Outline: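 Viability measured by CellTiter-Glo luminescence on day 5 following direct addition of compound to plated cells. Values expressed as percent of mean DMSO signal; curves fitted with a four-parameter logistic model.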

K-Ras G12C = K-Ras G12C (Homo sapiens (Human), UniProt P01116+P62937, G12C); assay: Ras-Raf (BRAF RBD) disruption / FRET / MOA assay, KRAS G12C; type: biochemical; details: KRAS G12C; Ras-Raf disruption/FRET/MOA assay; read-out: IC50* KRAS G12C FRET data
Outline: (§1)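 Ternary complex formation (Ras–compound–cyclophilin A) displacing BRAF RBD, monitored by TR-FRET. Three hours at 25° C with compound (top 30 μM final), then 1.5 h with the labelled antibodies. Lower ratio than DMSO indicates disruption; IC50 reported.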

KRAS G12S = KRAS G12S (Homo sapiens (Human), UniProt P01116+P62937, G12S); assay: Ras-Raf (BRAF RBD) disruption / FRET / MOA assay, KRAS G12S; type: biochemical; details: Ras-Raf disruption/FRET/MOA assay; class symbols; read-out: KRAS G12S FRET data IC50
Outline: as §1

KRAS G12D = KRAS G12D (Homo sapiens (Human), UniProt P01116+P62937, G12D); assay: Ras-Raf (BRAF RBD) disruption / FRET / MOA assay, KRAS G12D; type: biochemical; details: Ras-Raf disruption/FRET/MOA assay; class symbols; read-out: KRAS G12D FRET data IC50
Outline: as §1

KRAS WT = KRAS WT (Homo sapiens (Human), UniProt P01116+P62937); assay: Ras-Raf (BRAF RBD) disruption / FRET / MOA assay, KRAS WT; type: biochemical; details: read-out: IC50* KRAS WT FRET data
Outline: as §1

NRAS Q61R = NRAS Q61R (Homo sapiens (Human), UniProt P01111+P62937, Q61R); assay: Ras-Raf (BRAF RBD) disruption / FRET / MOA assay, NRAS Q61R; type: biochemical; details: NRAS Q61R; Ras-Raf disruption/FRET/MOA assay; read-out: IC50* NRAS Q61R FRET data
Outline: (§2)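 Compounds were tested as a 10-point 3-fold dilution series from 30 μM final for their ability to drive ternary complex formation between nucleotide-loaded Ras and cyclophilin A, displacing the BRAF RBD. After 3 h at 25° C., anti-His Eu-W1024 (10 nM) and anti-GST allophycocyanin (50 nM) were added for 1.5 h. A TR-FRET ratio decrease versus DMSO gave IC50.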

NRAS Q61K = NRAS Q61K (Homo sapiens (Human), UniProt P01111+P62937, Q61K); assay: Ras-Raf (BRAF RBD) disruption / FRET / MOA assay, NRAS Q61K; type: biochemical; details: NRAS Q61K; Ras-Raf disruption/FRET/MOA assay; read-out: IC50* NRAS Q61K FRET data
Outline: as §2

Chain of KRAS G12S (P01116-2 other isoform, or with tags, fused parts or gaps G12S): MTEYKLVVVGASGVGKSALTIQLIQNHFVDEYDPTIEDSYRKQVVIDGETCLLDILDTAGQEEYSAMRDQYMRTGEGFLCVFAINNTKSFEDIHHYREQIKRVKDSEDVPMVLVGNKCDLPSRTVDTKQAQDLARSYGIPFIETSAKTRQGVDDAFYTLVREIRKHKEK
Chain of KRAS G12S (P62937 whole entry): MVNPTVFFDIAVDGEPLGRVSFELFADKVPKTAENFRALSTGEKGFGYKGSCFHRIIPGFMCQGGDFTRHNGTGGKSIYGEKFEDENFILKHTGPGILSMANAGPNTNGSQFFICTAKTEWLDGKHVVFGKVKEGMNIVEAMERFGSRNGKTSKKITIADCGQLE
Chain of KRAS WT (P01116-2 other isoform, or with tags, fused parts or gaps): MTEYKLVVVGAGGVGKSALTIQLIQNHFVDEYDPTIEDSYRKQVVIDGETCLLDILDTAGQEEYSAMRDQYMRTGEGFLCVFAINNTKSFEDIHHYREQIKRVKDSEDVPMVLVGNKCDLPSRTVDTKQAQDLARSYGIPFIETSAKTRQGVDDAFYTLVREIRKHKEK
Chain of KRAS WT (P62937 whole entry): as the sequence (P62937 whole entry) above
Chain of NRAS Q61R (P01111 whole entry Q61R): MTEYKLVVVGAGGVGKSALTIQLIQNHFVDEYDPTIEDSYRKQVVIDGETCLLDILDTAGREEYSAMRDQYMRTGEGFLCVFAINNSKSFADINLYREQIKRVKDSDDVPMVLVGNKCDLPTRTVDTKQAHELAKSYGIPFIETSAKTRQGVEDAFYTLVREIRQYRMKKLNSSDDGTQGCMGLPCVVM
Chain of NRAS Q61R (P62937 whole entry): as the sequence (P62937 whole entry) above
Chain of KRAS G12D (P01116-2 other isoform, or with tags, fused parts or gaps G12D): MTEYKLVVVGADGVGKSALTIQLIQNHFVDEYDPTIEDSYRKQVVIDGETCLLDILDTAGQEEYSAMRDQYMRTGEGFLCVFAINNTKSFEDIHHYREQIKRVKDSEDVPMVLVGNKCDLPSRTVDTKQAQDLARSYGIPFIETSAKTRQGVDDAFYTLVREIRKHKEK
Chain of KRAS G12D (P62937 whole entry): as the sequence (P62937 whole entry) above
Chain of NRAS Q61K (P01111 whole entry Q61K): as the sequence (P01111 whole entry Q61R) above, with R61K counted along it
Chain of NRAS Q61K (P62937 whole entry): as the sequence (P62937 whole entry) above
Chain of K-Ras G12C (P01116-2 other isoform, or with tags, fused parts or gaps G12C): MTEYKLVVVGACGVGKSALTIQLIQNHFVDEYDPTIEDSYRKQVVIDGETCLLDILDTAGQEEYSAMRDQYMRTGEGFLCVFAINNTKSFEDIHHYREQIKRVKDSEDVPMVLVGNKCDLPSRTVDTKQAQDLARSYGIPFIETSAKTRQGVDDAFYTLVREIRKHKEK
Chain of K-Ras G12C (P62937 whole entry): as the sequence (P62937 whole entry) above

Structure (SMILES) | IC50 (NCI-H358 (K-Ras G12C); Homo sapiens, NCI-H358, 120 h) [nM] | IC50 (NCI-H358 (K-Ras G12C)) [nM] | IC50 (K-Ras G12C) | IC50 (KRAS G12S) | IC50 (KRAS G12D) | IC50 (KRAS WT) | IC50 (NRAS Q61R) [nM] | IC50 (NRAS Q61K) [nM]
C=CC(=O)N1CC[C@H](C(=O)N(C)[C@H](C(=O)N[C@H]2Cc3cc(O)cc(c3)-c3ccc4c(c3)c(c(-c3cc(C)ccc3[C@H](C)OC)n4CC)CC(C)(C)COC(=O)[C@@H]3CCCN(N3)C2=O)C(C)C)C1 (atropisomer, axis not shown) [Example A167] | 10 to 100 | < 10 | 100 to 1000 nM and < 10 nM | 1000 to 10000 nM and 10 to 100 nM | > 10000 nM and 100 to 1000 nM | 1000 to 10000 nM and 10 to 100 nM | 100 to 1000 | 100 to 1000
CC#CC(=O)N1CCC(C(=O)N(C)[C@H](C(=O)N[C@H]2Cc3nc(cs3)-c3ccc4c(c3)c(c(-c3cccnc3[C@H](C)OC)n4CC)CC(C)(C)COC(=O)[C@@H]3CCCN(N3)C2=O)C(C)C)C1 (atropisomer, axis not shown) [Example A168] | 10 to 100 | – | 100 to 1000 nM | 1000 to 10000 nM | > 10000 nM | 1000 to 10000 nM | 1000 to 10000 | 1000 to 10000
C=CC(=O)N1CC[C@H](C(=O)N(C)[C@H](C(=O)N[C@H]2Cc3cccc(c3)-c3ccc4c(c3)c(c(-c3cccnc3[C@H](C)OC)n4CC(F)F)CC(C)(C)COC(=O)[C@@H]3CCCN(N3)C2=O)C(C)C)C1 (atropisomer, axis not shown) [Example A335] | 10 to 100 | – | 100 to 1000 nM | 1000 to 10000 nM | > 10000 nM | 1000 to 10000 nM | 1000 to 10000 | 1000 to 10000
C=CC(=O)N1CC[C@H](C(=O)N(C)[C@H](C(=O)N[C@H]2Cc3cc(cc(C(F)F)c3)-c3ccc4c(c3)c(c(-c3cccnc3[C@H](C)OC)n4CC)CC(C)(C)COC(=O)[C@@H]3CCCN(N3)C2=O)C(C)C)C1 (atropisomer, axis not shown) [Example A341, (3S)-1-acryloyl-N-((2S)-1-(((6^3S,4S)-2^5-(difluoromethyl)-1^1-ethyl-1^2-(2-((S)-1-methoxyethyl)pyridin-3-yl)-10,10-dimethyl-5,7-dioxo-6^1,6^2,6^3,6^4,6^5,6^6-hexahydro-1^1H-8-oxa-1(5,3)-indola-6(1,3)-pyridazina-2(1,3)-benzenacycloundecaphane-4-yl)amino)-3-methyl-1-oxobutan-2-yl)-N-methylpyrrolidine-3-carboxamide] | 10 to 100 | – | 100 to 1000 nM | 1000 to 10000 nM | 1000 to 10000 nM | 1000 to 10000 nM | 1000 to 10000 | 1000 to 10000
C=CC(=O)N1CC(OC[C@H](C(=O)N[C@H]2Cc3cccc(c3)-c3ccc4c(c3)c(c(-c3cccnc3[C@H](C)OC)n4CC(F)(F)F)CC(C)(C)COC(=O)[C@@H]3CCCN(N3)C2=O)C(C)C)C1 (atropisomer, axis not shown) [Example A344] | < 10 | – | 10 to 100 nM | 1000 to 10000 nM | > 10000 nM | 1000 to 10000 nM | 1000 to 10000 | 1000 to 10000
C=CC(=O)N1CC(OC[C@H](C(=O)N[C@H]2Cc3cc(cc(C(F)F)c3)-c3ccc4c(c3)c(c(-c3cccnc3[C@H](C)OC)n4CC)CC(C)(C)COC(=O)[C@@H]3CCCN(N3)C2=O)C(C)C)C1 (atropisomer, axis not shown) [Example A345] | 100 to 1000 | – | 1000 to 10000 nM | > 10000 nM | > 10000 nM | > 10000 nM | > 10000 | > 10000
C=CC(=O)N1CC2(COCCN2C(=O)N(C)[C@H](C(=O)N[C@H]2Cc3nc(cs3)-c3ccc4c(c3)c(c(-c3cccnc3[C@H](C)OC)n4CC)CC(C)(C)COC(=O)[C@@H]3CCCN(N3)C2=O)C(C)C)C1 (atropisomer, axis not shown) [Example A352] | < 10 | – | 10 to 100 nM | > 10000 nM | > 10000 nM | 1000 to 10000 nM | 1000 to 10000 | 1000 to 10000
C=CC(=O)N1CC[C@@]2(C1)CN(C(=O)N(C)[C@H](C(=O)N[C@H]1Cc3nc(cs3)-c3ccc4c(c3)c(c(-c3cccnc3[C@H](C)OC)n4CC)CC(C)(C)COC(=O)[C@@H]3CCCN(N3)C1=O)C(C)C)CCO2 (atropisomer, axis not shown) [Example A353] | 10 to 100 | – | 10 to 100 nM | 100 to 1000 nM | 100 to 1000 nM | 100 to 1000 nM | 100 to 1000 | 10 to 100
